The assay is described as follows: ACCESS study (acute candesartan cilexetil evaluation in stroke survivors): early antihypertensive treatment after acute stroke versus placebo. The format is in vivo. The note with it: 342 enrolled stroke patients. The text has this: In order to clarify the question, the ACCESS study (acute candesarten cilexetil evaluation in stroke survivors) was conceived, which has now been completed.
The rational basis of the ACCESS study was the question whether early treatment of elevated blood pressure values in stroke treatment using a substance which affects the renin-angiotensin system in a blocking manner, could reduce the morbidity, mortality and neurological deficits resulting from such strokes. The main question posed related to the use of early antihypertensive treatment of patients with elevated blood pressure values after a stroke. […]
After enrollment of the patients in the study, a randomized therapy with candesartancilexetil or placebo was carried out. Depending upon the measured blood pressure values and patient specific criteria, the therapy was begun with once daily administration of one half to one tablet (corresponding to from 4 to 8 mg candesartancilexetil or placebo). […]

The results in this text go back to patent US20050009893A1, “Treatment of high blood pressure during the acute phase of a stroke” (Solvay Pharmaceuticals GmbH, priority 2001, published 2005).

As to `CCOc1nc2cccc(C(=O)O)c2n1Cc1ccc(-c2ccccc2-c2nnn[nH]2)cc1` [candesartan], where the note is “early treatment from 72 hours up to and including seven days after the stroke, placebo group first treated after one week (30 events)”, the “cardiovascular end point (number of events) in the course of a twelve month observation period” value stood at 17. For the same compound, for the setting “twelve month observation period, 17 vs. 30”, the “difference with respect to the cardiovascular end point in favor of early treatment versus placebo group” value is “about 43%”.
